Assay results from patent US6979686B1, “Substituted pyrazoles as p38 kinase inhibitors” (Pharmacia Corporation, priority 2001, dated 2005).

target: T1, human p38 kinase alpha (Homo sapiens, UniProt Q16539); experiment: p38 kinase in vitro assay, phosphorylation of biotinylated PHAS-I with 32P-ATP; type: biochemical; details: @ 1.0 uM
T1 construct: GST (N, cleaved yes); made in house; host or cells: E. coli DH10B
T1 sequence (Q16539 whole entry): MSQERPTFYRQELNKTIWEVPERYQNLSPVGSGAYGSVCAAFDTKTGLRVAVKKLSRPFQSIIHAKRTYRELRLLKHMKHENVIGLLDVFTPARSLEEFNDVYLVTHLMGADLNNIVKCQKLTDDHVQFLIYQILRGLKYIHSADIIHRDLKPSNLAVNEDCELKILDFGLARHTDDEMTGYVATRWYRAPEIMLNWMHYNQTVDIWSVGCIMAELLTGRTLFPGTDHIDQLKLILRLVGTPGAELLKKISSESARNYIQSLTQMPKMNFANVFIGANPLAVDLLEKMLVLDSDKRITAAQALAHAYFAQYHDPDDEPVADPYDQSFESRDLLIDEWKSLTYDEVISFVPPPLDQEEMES

Row | P38 alpha kinase % inhib @ conc. (uM) [% @] | P38 alpha kinase % inhib @ conc. [% @] | SMILES
1 | 66.0 | – | O=C(NCCCc1[nH]nc(-c2ccc(F)cc2)c1-c1ccncc1)c1ccc(I)cc1 [Example B-1168]
2 | 89.0 | – | CS(=O)(=O)NCCc1[nH]nc(-c2ccc(F)cc2)c1-c1ccncc1 [Example B-1024]
3 | 69.0 | – | CCOC(=O)C(CCSC)NC(=O)NCCc1[nH]nc(-c2ccc(F)cc2)c1-c1ccncc1 (stereo not drawn) [Example B-0935]
4 | 57.0 | – | CC(=O)OC(C)C(=O)NCCc1[nH]nc(-c2ccc(F)cc2)c1-c1ccncc1 (stereo not drawn) [Example B-0993]
5 | 55.0 | – | COCC(=O)NCCc1[nH]nc(-c2ccc(F)cc2)c1-c1ccncc1 [Example B-0994]
6 | 75.0 | – | CC(C)C(=O)NCCc1[nH]nc(-c2ccc(F)cc2)c1-c1ccncc1 [Example B-0983]
7 | 74.0 | – | O=S(=O)(NCCCc1[nH]nc(-c2ccc(F)cc2)c1-c1ccncc1)C(F)(F)F [Example B-1196]
8 | – | 85.0 | O=C(NCCCc1[nH]nc(-c2ccc(F)cc2)c1-c1ccncc1)[C@H]1CCCN1 [Example B-1233]
9 | 69.0 | – | CC(C)(C)C(=O)NCCc1[nH]nc(-c2ccc(F)cc2)c1-c1ccncc1 [Example B-1052]

same assay, conditions: @ 1.0 uM; read-out: P38 alpha kinase % inhib @ conc.

Row | inhibition at 1 µM [%] | SMILES
10 | 94 | O=C(NCc1[nH]nc(-c2ccc(F)cc2)c1-c1ccncc1)c1ccccc1[N+](=O)[O-] [Example B-0024]
11 | 94 | CCC(Oc1ccccc1)C(=O)NCc1[nH]nc(-c2ccc(F)cc2)c1-c1ccncc1 (stereo not drawn) [Example B-0047]
12 | 56 | O=C(NCc1[nH]nc(-c2ccc(F)cc2)c1-c1ccncc1)c1ccc(I)cc1 [Example B-0017]
13 | 42 | O=C(NCc1[nH]nc(-c2ccc(F)cc2)c1-c1ccncc1)c1ccc(-c2ccccc2)cc1 [Example B-0008]

same assay, conditions: @ 10.0 uM

Row | P38 alpha kinase % inhib @ conc. [% @] | P38 alpha kinase IC50, uM or % inhib @ conc. (uM): % inhib [% @] | SMILES
14 | 37.0 | – | CCOC(=O)CC(NC(=O)Cn1nc(-c2ccc(F)cc2)c(-c2ccncc2)c1C)C(=O)OCC (stereo not drawn) [Example B-2352]
15 | 76.0 | – | Cc1c(-c2ccncc2)c(-c2ccc(F)cc2)nn1CC(=O)NC1CCSc2ccccc21 (stereo not drawn) [Example B-2348]
16 | 17.0 | – | CCCN(CCC)CC(C)NC(=O)Cn1nc(-c2ccc(F)cc2)c(-c2ccncc2)c1C (stereo not drawn) [Example B-2358]
17 | – | 34.0 | CCOC(=O)CN(Cc1ccccn1)C(=O)Cn1nc(-c2ccc(F)cc2)c(-c2ccncc2)c1C [Example B-2390]
18 | 73.0 | – | Cc1c(-c2ccncc2)c(-c2ccc(F)cc2)nn1CC(=O)NC1CCN(Cc2ccccc2)C1 (stereo not drawn) [Example B-2338]
19 | 60.0 | – | COCC(C)NC(=O)Cn1nc(-c2ccc(F)cc2)c(-c2ccncc2)c1C (stereo not drawn) [Example B-2325]

same assay, conditions: in vitro P38-alpha kinase inhibition; read-out: P38 alpha kinase IC50

Row | IC50 [nM] | SMILES
20 | 490 | CC(NC(=O)c1ccccn1)c1[nH]nc(-c2ccc(F)cc2)c1-c1ccncc1 (stereo not drawn) [Example B-0556]
21 | 1780 | O=C(NC(Cc1ccccc1)c1[nH]nc(-c2ccc(F)cc2)c1-c1ccncc1)c1ccc(F)c(F)c1F (stereo not drawn) [Example B-0845]
22 | 150 | CC(NS(=O)(=O)c1ccccc1C(F)(F)F)c1[nH]nc(-c2ccc(F)cc2)c1-c1ccncc1 (stereo not drawn) [Example B-0635]
23 | 230 | CC(NC(=O)c1cccc(F)c1F)c1[nH]nc(-c2ccc(F)cc2)c1-c1ccncc1 (stereo not drawn) [Example B-0695]
24 | 730 | CCc1ccc(S(=O)(=O)NCCc2[nH]nc(-c3ccc(F)cc3)c2-c2ccncc2)cc1 [Example B-1088]
25 | 2640 | Cc1c(C)c(S(=O)(=O)NC(C)c2[nH]nc(-c3ccc(F)cc3)c2-c2ccncc2)c(C)c2c1OC(C)(C)CC2 (stereo not drawn) [Example B-0659]
26 | 170 | CC(NS(=O)(=O)c1ccccc1S(C)(=O)=O)c1[nH]nc(-c2ccc(F)cc2)c1-c1ccncc1 (stereo not drawn) [Example B-0666]
27 | 6000 | O=C(Cc1cccs1)NC(Cc1ccccc1)c1[nH]nc(-c2ccc(F)cc2)c1-c1ccncc1 (stereo not drawn) [Example B-0745]
28 | < 100 | COc1ccc(C)cc1S(=O)(=O)NCCc1[nH]nc(-c2ccc(F)cc2)c1-c1ccncc1 [Example B-1098]
29 | 2930 | O=C(NCCc1[nH]nc(-c2ccc(F)cc2)c1-c1ccncc1)c1cccc(C(F)(F)F)c1 [Example B-1123]
30 | 8000 | O=C(NCCc1ccccc1)NC(Cc1ccccc1)c1[nH]nc(-c2ccc(F)cc2)c1-c1ccncc1 (stereo not drawn) [Example B-0783]
31 | 850 | CC(Oc1ccccc1)C(=O)NC(C)c1[nH]nc(-c2ccc(F)cc2)c1-c1ccncc1 (stereo not drawn) [Example B-0558]
32 | 500 | O=C(NC(Cc1ccccc1)c1[nH]nc(-c2ccc(F)cc2)c1-c1ccncc1)N1CCCC1 (stereo not drawn) [Example B-0771]
33 | 2300 | O=C(NCc1ccccc1)NC(Cc1ccccc1)c1[nH]nc(-c2ccc(F)cc2)c1-c1ccncc1 (stereo not drawn) [Example B-0770]
34 | 840 | CC(C)S(=O)(=O)NC(Cc1ccccc1)c1[nH]nc(-c2ccc(F)cc2)c1-c1ccncc1 (stereo not drawn) [Example B-0709]
35 | 1890 | CNC(=O)CCC(NC(=O)Nc1ccc(OC)cc1OC)c1[nH]nc(-c2ccc(F)cc2)c1-c1ccncc1 (stereo not drawn) [Example B-0884]
36 | 1170 | O=C(NCCc1[nH]nc(-c2ccc(F)cc2)c1-c1ccncc1)c1ccc(C(F)(F)F)cc1F [Example B-1136]
37 | 420 | CC(NC(=O)c1c(F)ccc(F)c1F)c1[nH]nc(-c2ccc(F)cc2)c1-c1ccncc1 (stereo not drawn) [Example B-0680]
38 | 270 | O=C(NCCc1[nH]nc(-c2ccc(F)cc2)c1-c1ccncc1)c1cccs1 [Example B-1156]
39 | 2150 | CNC(=O)CCC(NC(=O)c1ccc(F)cc1)c1[nH]nc(-c2ccc(F)cc2)c1-c1ccncc1 (stereo not drawn) [Example B-0862]
40 | 35 | COc1ccc(Br)cc1S(=O)(=O)NCCc1[nH]nc(-c2ccc(F)cc2)c1-c1ccncc1 [Example B-1102]

same assay, conditions: in vitro P38-alpha kinase; read-out: P38 alpha kinase IC50

Row | IC50 [nM] | SMILES
41 | 320 | O=S(=O)(NCCCc1[nH]nc(-c2ccc(F)cc2)c1-c1ccncc1)c1ccc(C(F)(F)F)cc1 [Example B-1264]
42 | 400 | Cc1c(-c2ccncc2)c(-c2ccc(F)cc2)nn1CC(=O)NCCCN1CCCC1=O [Example B-2280]
43 | 59 | N#Cc1ccc(C(=O)N2CCC(c3[nH]nc(-c4ccc(F)cc4)c3-c3ccncc3)CC2)cc1 [Example B-1392]
44 | 2500 | O=S(=O)(c1ccc(OC(F)(F)F)cc1)N1CCC(c2[nH]nc(-c3ccc(F)cc3)c2-c2ccncc2)CC1 [Example B-1477]
45 | 140 | O=C(c1ccccc1C(F)(F)F)N1CCC(c2[nH]nc(-c3ccc(F)cc3)c2-c2ccncc2)CC1 [Example B-1399]
46 | 140 | O=S(=O)(NCCCc1[nH]nc(-c2ccc(F)cc2)c1-c1ccncc1)c1ccc(Cl)cc1 [Example B-1238]
47 | 140 | O=C(c1cccc(Cl)c1Cl)N1CCC(c2[nH]nc(-c3ccc(F)cc3)c2-c2ccncc2)CC1 [Example B-1416]
48 | 270 | O=C(NCCCc1[nH]nc(-c2ccc(F)cc2)c1-c1ccncc1)c1cc2ccccc2s1 [Example B-1325]
49 | 260 | O=S(=O)(NCCCc1[nH]nc(-c2ccc(F)cc2)c1-c1ccncc1)c1ccc(-c2ccon2)s1 [Example B-1290]
50 | 400 | O=C(c1cccc(C(F)(F)F)c1F)N1CCC(c2[nH]nc(-c3ccc(F)cc3)c2-c2ccncc2)CC1 [Example B-1407]
51 | 240 | CN(C)c1cccc2c(S(=O)(=O)NCCCc3[nH]nc(-c4ccc(F)cc4)c3-c3ccncc3)cccc12 [Example B-1249]
